Like-named read-outs stand apart in the source and are kept apart here.
Key:
[1] = tested on: PI3Kα wide type cell line SK-BR-3; assay: Cell Proliferation IC50 Assay (CellTiter-Glo), SK-BR-3; type: cell-based; details: Homo sapiens; SK-BR-3 (PI3Kα wild type), 72 hours, CellTiter-Glo; read-out: IC50 (μM) SK-BR-3
Description: (§1) PI3Kα H1047R mutation cell line T-47D and MDA-MB-453, E545K mutation cell line MDA-MB-361 and PI3Kα wide type cell line SK-BR-3 were purchased from Cobioer Biotech (cat. no CBP60397, CBP60386, CBP60383 and CBP60413 respectively). The CellTiter-Glo Direct Cell Proliferation Assay Kit was purchased from Prornega (cat. No. G7573)
(§2) For cell proliferation assay in each cell line: • a. Prepare complete medium (R PMI 1640, DMEM or McCoys): Add FBS and appropriate additives according to the information sheet provided by the vendor. Mix gently. • b. Prepare single cell suspension and count the cell numbers and adjust cells to appropriate density. • c. Add 80 μL of cell suspension to 96-well opaque-walled clear bottom plates according to the planned plate layout and place the plates in the CO2 incubator overnight. • d. Prepare intermediate plate: 10 μl of diluted test compounds or staurosporine solution (200×) is added to a 96 deep well plate. Then 390 μl of culture medium without FBS is added to the respective wells. • e. Transfer 20 μL of the solutions from the above intermediate plate to the wells of the plate prepared containing 80 μL of the culture medium and cells. The total dilution is 200 folds. • f. The cells were then incubated at 5% CO2, 37° C. for 72 hours. • g. Equilibrate the plate and its contents to room temperature for approximately 30 minutes. • h. Add 100 μL of CellTiter-Glo reagent to the assay plate • i. Mix contents for 10 minutes on an orbital shaker to induce cell lysis. • j. Allow the plate to incubate at room temperature for 10 minutes to stabilize luminescent signal, • k. Paste the clear bottom with white back seal and record luminescence with Varioskan LUX plate reader.
(§3) Inhibition % and IC50 value were calculated by the formula described below: […]

[2] = tested on: PI3Kα H1047R mutation cell line T-47D; assay: Cell Proliferation IC50 Assay (CellTiter-Glo), T-47D; type: cell-based; details: Homo sapiens, T47D (H1047R), 72 hours, CellTiter-Glo, read-out: IC50 (μM) T47D
Description: as §1, §2, §3

Row | IC50 [1] | IC50 ([2]; T47D, 72 h) | SMILES | IC50 [2]
1 | > 10 µM | 0.28 µM | Cc1cc(C(C)Nc2ccccc2C(=O)O)c2oc(-c3cc4ccncc4[nH]3)cc(=O)c2c1 (stereo not shown) [Example 117, 2-((1-(6-methyl-4-oxo-2-(1H-pyrrolo[2,3-c]pyridin-2-yl)-4H-chromen-8-yl)ethyl)amino)benzoic acid] | –
2 | > 10 µM | 0.76 µM | Cc1cc(C(C)Nc2ccccc2C(=O)O)c2oc(-c3ccc4c(=O)n(C)cnc4c3)cc(=O)c2c1 (stereo not shown) [Example 121, 2-((1-(6-methyl-2-(3-methyl-4-oxo-3,4-dihydroquinazolin-7-yl)-4-oxo-4H-chromen-8-yl)ethyl)amino)benzoic acid] | –
3 | > 10 µM | 0.18 µM | Cc1cc([C@@H](C)Nc2ccccc2C(=O)O)c2oc(-c3ccc(CN4CCCC4=O)cc3)c(C)c(=O)c2c1 [Example 135, (R)-2-((1-(3,6-dimethyl-4-oxo-2-(4-((2-oxopyrrolidin-1-yl)methyl)phenyl)-4H-chromen-8-yl)ethyl)amino)benzoic acid] | –
4 | > 10 µM | > 10 µM | Cc1cc([C@@H](C)Nc2ccccc2C(=O)O)c2oc(-c3ccc(Cn4cncn4)cc3)c(C)c(=O)c2c1 [Example 136, (R)-2-((1-(2-(4-((1H-1,2,4-triazol-1-yl)methyl)phenyl)-3,6-dimethyl-4-oxo-4H-chromen-8-yl)ethyl)amino)benzoic acid] | –
5 | > 10 µM | 1.04 µM | CC(=O)N1CCN(C(=O)c2ccc(-c3oc4c([C@@H](C)Nc5ccccc5C(=O)O)cc(C)cc4c(=O)c3C)cc2)CC1 [Example 139, (R)-2-((1-(2-(4-(4-acetylpiperazine-1-carbonyl)phenyl)-3,6-dimethyl-4-oxo-4H-chromen-8-yl)ethyl)amino)benzoic acid] | –
6 | > 10 µM | 0.25 µM | Cc1cc(C(C)Nc2ccccc2C(=O)O)c2oc(-c3ccc(-n4ccnc4)cc3)cc(=O)c2c1 (stereo not shown) [Example 143, 2-((1-(2-(4-(1H-imidazol-1-yl)phenyl)-6-methyl-4-oxo-4H-chromen-8-yl)ethyl)amino)benzoic acid] | –
7 | > 10 µM | 0.14 µM | Cc1cc(C(C)Nc2ccccc2C(=O)O)c2oc(-c3ccc(-c4cn(C)cn4)cc3)cc(=O)c2c1 (stereo not shown) [Example 144, 2-((1-(6-methyl-2-(4-(1-methyl-1H-imidazol-4-yl)phenyl)-4-oxo-4H-chromen-8-yl)ethyl)amino)benzoic acid] | –
8 | > 10 µM | 1.6 µM | CC(=O)N1CC(c2ccc(-c3cc(=O)c4cc(C)cc(C(C)Nc5ccccc5C(=O)O)c4o3)cc2)C1 (stereo not shown) [Example 145, 2-((1-(2-(4-(1-acetylazetidin-3-yl)phenyl)-6-methyl-4-oxo-4H-chromen-8-yl)ethyl)amino)benzoic acid] | –
9 | > 10 µM | 6.9 µM | Cc1cc(C(C)Nc2ccccc2C(=O)O)c2oc(-c3cnc(N4CCOCC4)nc3)cc(=O)c2c1 (stereo not shown) [Example 152, 2-((1-(6-methyl-2-(2-morpholinopyrimidin-5-yl)-4-oxo-4H-chromen-8-yl)ethyl)amino)benzoic acid] | –
10 | > 10 µM | 0.29 µM | CC(=O)N1CCN(c2ccc(-c3oc4c([C@@H](C)Nc5ccccc5C(=O)O)cc(C)cc4c(=O)c3C)cn2)CC1 [Example 153, (R)-2-((1-(2-(6-(4-acetylpiperazin-1-yl)pyridin-3-yl)-3,6-dimethyl-4-oxo-4H-chromen-8-yl)ethyl)amino)benzoic acid] | –
11 | > 10 µM | 5.5 µM | Cc1cc([C@@H](C)Nc2ccccc2C(=O)NS(C)(=O)=O)c2oc(-c3ccc4nn(C)cc4c3)cc(=O)c2c1 [Example 158, (R)-2-((1-(6-methyl-2-(2-methyl-2H-indazol-5-yl)-4-oxo-4H-chromen-8-yl)ethyl)amino)-N-(methylsulfonyl)benzamide] | –
12 | > 10 µM | 0.41 µM | CC(=O)N1CCN(c2ccc(-c3oc4c(C(C)Nc5ccccc5S(N)(=O)=O)cc(C)cc4c(=O)c3C)cc2)CC1 (stereo not shown) [Example 159, 2-((1-(2-(4-(4-acetylpiperazin-1-yl)phenyl)-3,6-dimethyl-4-oxo-4H-chromen-8-yl)ethyl)amino)benzenesulfonamide] | –
13 | > 10 µM | 0.23 µM | Cc1cc([C@@H](C)Nc2ccccc2C(=O)O)c2oc(-c3ccc(-c4cn(C)cn4)cc3)c(C)c(=O)c2c1 [Example 162, (R)-2-((1-(3,6-dimethyl-2-(4-(1-methyl-1H-imidazol-4-yl)phenyl)-4-oxo-4H-chromen-8-yl)ethyl)amino)benzoic acid] | –
14 | > 10 µM | 0.38 µM | Cc1cc([C@@H](C)Nc2ccccc2C(=O)O)c2oc(-c3ccc(-c4cnn(C)c4)nc3)cc(=O)c2c1 [Example 164, (R)-2-((1-(6-methyl-2-(6-(1-methyl-1H-pyrazol-4-yl)pyridin-3-yl)-4-oxo-4H-chromen-8-yl)ethyl)amino)benzoic acid] | –
15 | 4.39 µM | 0.042 µM | Cc1cc([C@@H](C)Nc2ccc(Cl)nc2C(=O)O)c2oc(-c3ccc(OCCN(C)C)cc3)c(C)c(=O)c2c1 [Example 165, (R)-6-chloro-3-((1-(2-(4-(2-(dimethylamino)ethoxy)phenyl)-3,6-dimethyl-4-oxo-41-1 chromen-8-yl)ethyl)amino)picolinic acid] | –
16 | > 10 µM | 0.23 µM | Cc1cc([C@@H](C)Nc2ccccc2C(=O)O)c2oc(-c3ccc(OCCN(C)C)cc3)cc(=O)c2c1 [Example 166, (R)-2-((1-(2-(4-(2-(dimethylamino)ethoxy)phenyl)-6-methyl-4-oxo-4H-1-chromen-8-yl)ethyl)amino)benzoic acid] | –

More lines, now with the values behind:

Row | SMILES | IC50 [1] | IC50 ([2]; T47D, 72 h) | IC50 [2]
17 | CC(=O)N1CCN(Cc2ccc(-c3oc4c([C@@H](C)Nc5ccccc5C(=O)O)cc(C)cc4c(=O)c3C)cc2)CC1 [Example 137, (R)-2-((1-(2-(4-((4-acetylpiperazin-1-yl)methyl)phenyl)-3,6-dimethyl-4-oxo-4H-chromen-8-yl)ethyl)amino)benzoic acid] | > 10 µM | 0.19 µM | –
18 | CC(=O)N1CCN(C(C)c2ccc(-c3oc4c([C@@H](C)Nc5ccccc5C(=O)O)cc(C)cc4c(=O)c3C)cc2)CC1 (stereo partly drawn) [Example 138, 2-(((1R)-1-(2-(4-(1-(4-acetylpiperazin-1-yl)ethyl)phenyl)-3,6-dimethyl-4-oxo-4H-chromen-8-yl)ethyl)amino)benzoic acid] | > 10 µM | 0.083 µM | –
19 | Cc1cc([C@@H](C)Nc2ccccc2C(=O)O)c2oc(-c3ccc(OCCN4CCOCC4)cc3)c(C)c(=O)c2c1 [Example 141, (R)-2-((1-(3,6-dimethyl-2-(4-(2-morpholinoethoxy)phenyl)-4-oxo-4H-chromen-8-yl)ethyl)amino)benzoic acid] | > 10 µM | 0.044 µM | –
20 | Cc1cc([C@@H](C)Nc2ccccc2C(=O)O)c2oc(-c3ccc(CCN4CCOCC4)cc3)c(C)c(=O)c2c1 [Example 142, (R)-2-((1-(3,6-dimethyl-2-(4-(2-morpholinoethyl)phenyl)-4-oxo-4H-chromen-8-yl)ethyl)amino)benzoic acid] | > 10 µM | 0.043 µM | –
21 | Cc1cc([C@@H](C)Nc2ccccc2C(=O)O)c2oc(-c3ccc(Cn4ccnc4)cc3)c(C)c(=O)c2c1 [Example 146, (R)-2-((1-(2-(4-((1H-imidazol-1-yl)methyl)phenyl)-3,6-dimethyl-4-oxo-4H-chromen-8-yl)ethyl)amino)benzoic acid] | > 10 µM | 0.18 µM | –
22 | Cc1cc(C(C)Nc2ccccc2C(=O)NO)c2oc(-c3ccc4nn(C)cc4c3)c(C)c(=O)c2c1 (stereo not shown) [Example 156, 2-((1-(3,6-dimethyl-2-(2-methyl-2H-indazol-5-yl)-4-oxo-41H-chromen-8-yl)ethyl)amino)-N-hydroxybenzamide] | > 10 µM | 0.13 µM | –
23 | Cc1cc([C@@H](C)Nc2ccccc2C(=O)NS(=O)(=O)C2CC2)c2oc(-c3ccc4nn(C)cc4c3)cc(=O)c2c1 [Example 157, (R)—N-(cyclopropylsulfonyl)-2-((1-(6-methyl-2-(2-methyl-2H-indazol-5-yl)-4-oxo-4H-chromen-8-yl)ethyl)amino)benzamide] | > 10 µM | 3.43 µM | –
24 | Cc1cc([C@@H](C)Nc2ccccc2C(=O)O)c2oc(-c3ccc(OC4CCN(C)C4)cc3)c(C)c(=O)c2c1 (stereo partly drawn) [Example 160, 2-(((1R)-1-(3,6-dimethyl-2-(4-((1-methylpyrrolidin-3-yl)oxy)phenyl)-4-oxo-4H-chromen-8-yl)ethyl)amino)benzoic acid] | > 10 µM | – | 0.065 µM
25 | Cc1cc([C@@H](C)Nc2ccccc2C(=O)O)c2oc(-c3ccc(N4CCC(N(C)C)CC4)cc3)c(C)c(=O)c2c1 [Example 161, (R)-2-((1-(2-(4-(4-(dimethylamino)piperidin-1-yl)phenyl)-3,6-dimethyl-4-oxo-4H-chromen-8-yl)ethyl)amino)benzoic acid] | 6.5 µM | 0.067 µM | –
26 | Cc1cc([C@@H](C)Nc2ccccc2C(=O)O)c2oc(-c3ccc(-c4cn(C)cn4)nc3)c(C)c(=O)c2c1 [Example 163] | > 10 µM | – | 0.12 µM
